Reference: patent publication US20240368151A1, “NOVEL ERGOLINES AND METHODS OF TREATING MOOD DISORDERS” (priority 2021, published 2024)

Columns and labels:
D2 receptor = D2 receptor (Homo sapiens (Human), UniProt P14416); assay: FLIPR Ca^2+ flux agonist assay at D2; type: cell-based
Procedure: (§1) Functional Assays at Adrenergic and Dopamine Receptors. Agonist activity at Alpha1A, Alpha2A, D1, and D2 receptors was determined using a FLIPR Ca^2+ flux assay at WuXi AppTec (Hong Kong) Limited according to their standard protocols. Briefly, stably transfected cells expressing the receptor of interest were grown and plated in a 384 well plate and incubated at 37° C. and 5% CO2 overnight. A solution of 250 mM probenecid in 1 mL FLIPR assay buffer was prepared fresh. This was combined with a fluorescent dye (Fluo-4 Direct™) to make a final assay concentration of 2.5 mM. […] The fluorescent dye was then added to the assay plate along with assay buffer to a final volume of 40 μL. The cell plate was incubated for 50 min at 37° C. and 5% CO2 and placed into the FLIPR Tetra along with the compound plate. 10 μL of references and compounds were then transferred from the compound plate into the cell plate and the fluorescent signal was read.

[1] = Metabolic stability in human liver microsomes (HLM); type: in vitro ADME; conditions: both sexes, human, pooled human liver microsomes, pH 7.4, NADPH
Text: HLM Stability. Pooled HLM from adult male and female donors (Corning 452117) were used.

5-HT2A receptor = 5-HT2A receptor (Homo sapiens (Human), UniProt P28223); type: cell-based; conditions: for 5-HT2A % Act @ Max Dose: Ca^2+ flux, HEK293
Method in brief: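 Agonist-induced calcium flux was measured on FLIPR Tetra in stable HEK293 cells for 5-HT2A and 5-HT2B, and in stable CHO cells for 5-HT1A. Cells were loaded with Fluo-4 Direct dye and 2.5 mM probenecid for 50 min at 37 °C before compound addition and fluorescence reading.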

[2] = Metabolic stability in mouse liver microsomes (MLM); type: in vitro ADME; conditions: mouse, pooled mouse liver microsomes, pH 7.4, MLM (CD-1), NADPH
Text: MLM Stability Pooled MLM from CD-1 mice (BIOIVT M00501) were used.

D1 receptor = D1 receptor (Homo sapiens (Human), UniProt P21728); assay: FLIPR Ca^2+ flux agonist assay at D1; type: cell-based
Chain of D1 receptor (P21728 whole entry, looked up): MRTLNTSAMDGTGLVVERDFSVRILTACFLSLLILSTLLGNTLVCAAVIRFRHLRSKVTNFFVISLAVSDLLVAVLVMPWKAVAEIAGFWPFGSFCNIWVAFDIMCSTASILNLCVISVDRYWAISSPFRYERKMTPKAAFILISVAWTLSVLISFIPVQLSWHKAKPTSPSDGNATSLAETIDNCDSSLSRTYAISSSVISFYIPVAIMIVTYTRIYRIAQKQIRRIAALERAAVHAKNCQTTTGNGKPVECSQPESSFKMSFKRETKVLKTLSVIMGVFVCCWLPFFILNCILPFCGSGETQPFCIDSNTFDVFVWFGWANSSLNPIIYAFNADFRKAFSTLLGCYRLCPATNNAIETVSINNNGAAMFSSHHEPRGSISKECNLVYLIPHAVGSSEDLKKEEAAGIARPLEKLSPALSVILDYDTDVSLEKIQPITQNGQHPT
Procedure: as §1

Sprague Dawley rats = assay: Forced swim test (FST) in rats; type: in vivo, rat; conditions: for Time Immobile / efficacy in FST relative to positive control desipramine, in words: rat FST; for Time Immobile: 23.5 hours after a single dose; for efficacy in FST relative to positive control desipramine, in words: 0.032 mg/kg
Procedure: Compound 1 induced antidepressant-like effects in the forced swim test (FST) in rats with a 23.5-h pre-treatment time (FIG. 2).
Animals. Male Sprague Dawley rats, aged 9-10 weeks, were used in this experiment. Animals were housed in groups of 2 under controlled temperature (22±3° C.) and relative humidity (30-70%) conditions, with 12-hour light/dark cycles, and with ad libitum food and water. This study was carried out in strict accordance with the requirements of the Committee for the Purpose of Control and Supervision of Experiments on Animals (CPCSEA), India. All efforts were made to minimize suffering.
Drugs and Drug Administration. Compound 1 was synthesized as described above. Desipramine HCl was commercially obtained. The test compound, saline vehicle, and the positive control desipramine were administered subcutaneously (SC), with doses calculated based on the freebase. Normal saline was used as the vehicle. All compounds were administered at a volume of 5 mL/kg. The test compound and vehicle were administered 0.5 h after the start of the training swim (Swim 1) and 23.5 h before the test swim (Swim 2). Desipramine was administered 3 times, at 23.5 h, 5 h, and 1 h before the test swim (Swim 2), each time at a dose of 20 mg/kg. Group size was n=10 per treatment.
Forced Swim Test (FST). […] Rats were handled for about 2 min daily for the 5 days prior to the beginning of the experimental procedure. On the first day of the experiment (i.e., Day 0), post randomization, training swim sessions (Swim 1) were conducted between 12:00 and 18:00 h with all animals by placing rats in individual glass cylinders (46 cm tall×20 cm in diameter) containing 23-25° C. water 30 cm deep for 15 minutes. At the conclusion of Swim 1, animals were dried with paper towels, placed in heated drying cages for 15 minutes, and then returned to their home cages. Animals were then administered the appropriate drug or vehicle treatment(s), as described above. For clarity, a compound administration time of 23.5 h before Swim 2 means 0.5 h after the start of Swim 1 and 0.25 h after the completion of Swim 1 (i.e., immediately after return to the home cage). On Day 1 (i.e., 24 h after start of Swim 1), animals performed the test swim (Swim 2) for a period of 5 min but otherwise under the same conditions as Swim 1. During all swim sessions, the water was changed between each animal.
Behavioral scoring was conducted by observers who were blind to the treatment groups. Animals were continuously observed during Swim 2 and the total time spent engaging in the following behaviors was recorded: immobile, swimming, and climbing. A rat was judged to be immobile when it remained floating in the water without struggling and was making only those movements necessary to keep its head above water. A rat was judged to be swimming when it made active swimming motions, more than necessary to merely maintain its head above water (e.g., moving around in the cylinder). A rat was judged to be climbing when it made active movements with its forepaws in and out of the water, usually directed against the walls.
Statistical Analysis. The data points shown represent the mean±standard error of the mean (SEM). Analysis was performed using GraphPad Prism 6. Comparisons between groups were performed using the one-way analysis of variance (ANOVA), followed by Dunnett's test for comparisons to vehicle.
Additional disclosed compounds were tested in the forced swim test (FST) in rats according to the procedure described in Example 35.

human 5-HT2C receptor = human 5-HT2C receptor (Homo sapiens (Human), UniProt P28335); type: cell-based; conditions: Ca^2+ flux
Chain of human 5-HT2C receptor (P28335 33-458 limits assumed): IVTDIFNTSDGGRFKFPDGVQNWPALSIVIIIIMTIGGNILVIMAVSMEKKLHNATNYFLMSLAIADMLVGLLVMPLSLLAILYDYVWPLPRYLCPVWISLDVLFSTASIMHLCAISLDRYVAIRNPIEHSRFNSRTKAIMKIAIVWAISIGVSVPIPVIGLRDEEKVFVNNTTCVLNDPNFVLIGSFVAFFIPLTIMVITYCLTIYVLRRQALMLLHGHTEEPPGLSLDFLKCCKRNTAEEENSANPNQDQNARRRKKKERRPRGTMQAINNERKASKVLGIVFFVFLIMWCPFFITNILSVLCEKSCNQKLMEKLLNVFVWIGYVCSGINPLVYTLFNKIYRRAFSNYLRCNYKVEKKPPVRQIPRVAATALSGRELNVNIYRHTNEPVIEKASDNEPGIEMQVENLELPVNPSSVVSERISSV

Alpha2A receptor = Alpha2A receptor (Homo sapiens (Human), UniProt P08913); assay: FLIPR Ca^2+ flux agonist assay at Alpha2A; type: cell-based
Chain of Alpha2A receptor (P08913 whole entry, looked up): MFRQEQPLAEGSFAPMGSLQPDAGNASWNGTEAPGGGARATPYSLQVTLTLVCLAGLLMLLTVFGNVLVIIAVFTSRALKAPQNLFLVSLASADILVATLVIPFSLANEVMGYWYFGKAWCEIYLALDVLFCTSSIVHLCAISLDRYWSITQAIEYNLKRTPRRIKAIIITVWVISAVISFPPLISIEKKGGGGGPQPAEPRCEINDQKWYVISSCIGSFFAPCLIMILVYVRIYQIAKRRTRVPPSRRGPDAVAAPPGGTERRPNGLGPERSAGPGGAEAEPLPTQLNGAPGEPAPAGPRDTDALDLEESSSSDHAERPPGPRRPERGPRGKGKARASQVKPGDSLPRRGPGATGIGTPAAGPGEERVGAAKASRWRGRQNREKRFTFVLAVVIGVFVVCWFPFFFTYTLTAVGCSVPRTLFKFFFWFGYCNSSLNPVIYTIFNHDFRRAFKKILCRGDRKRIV
Procedure: as §1

Chain of D2 receptor (P14416 whole entry, looked up): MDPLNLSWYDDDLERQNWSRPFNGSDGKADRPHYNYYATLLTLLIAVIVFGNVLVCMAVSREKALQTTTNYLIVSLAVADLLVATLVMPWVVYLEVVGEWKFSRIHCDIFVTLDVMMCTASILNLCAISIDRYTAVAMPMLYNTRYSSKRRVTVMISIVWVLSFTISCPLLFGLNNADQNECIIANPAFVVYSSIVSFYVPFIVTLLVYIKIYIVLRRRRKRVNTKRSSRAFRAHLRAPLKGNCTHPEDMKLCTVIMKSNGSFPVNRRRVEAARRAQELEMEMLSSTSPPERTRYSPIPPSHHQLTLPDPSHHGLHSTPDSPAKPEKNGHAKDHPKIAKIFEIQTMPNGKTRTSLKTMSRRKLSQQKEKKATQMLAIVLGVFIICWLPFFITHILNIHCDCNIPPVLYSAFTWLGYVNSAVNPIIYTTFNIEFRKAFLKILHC

Row | Structure (SMILES) | D2 % Act @ Max Dose (D2 receptor) [%] | half-life at 1 μM [1] [min] | 5-HT2A % Act @ Max Dose (5-HT2A receptor) [%] | half-life at 1 μM [2] [min] | D1 % Act @ Max Dose (D1 receptor) [%] | Time Immobile (Sprague Dawley rats; 0.01 mg/kg SC) [s] | Time Immobile (Sprague Dawley rats; 0.032 mg/kg SC) [s] | efficacy in FST relative to positive control desipramine, in words (Sprague Dawley rats; SC) | Time Immobile (Sprague Dawley rats; 0.32 mg/kg SC) [s] | 5-HT2C % Act @ Max Dose (human 5-HT2C receptor) [%] | Alpha 2A % Act @ Max Dose (Alpha2A receptor) [%] | agonist efficacy at Alpha2A, in words (Alpha2A receptor) | immobility time relative to vehicle control, in words (Sprague Dawley rats; rats, SC, 23.5 hours after a single administration) | selectivity for the 5-HT2A receptor over the tested adrenergic and dopamine receptors, in words (5-HT2A receptor; vs Alpha1A, Alpha2A, D1, D2)
1 | CCCN1C[C@H](C(=O)N2[C@@H](C)C[C@@H]2C)C=C2c3cccc4[nH]cc(c34)C[C@H]21 [Compound 4, ((2S,4S)-2,4-dimethylazetidin-1-yl)((6aR,9R)-7-propyl-4,6,6a,7,8,9-hexahydroindolo[4,3-fg]quinolin-9-yl)methanone] | 116.6 | 10.6 | 97.6 | 0.8 | 113.6 | 110.4 | 68.89 | as efficacious as the positive control desipramine | 117.9 | 110.845 | 102.86 | – | – | –
2 | CCN(CC)C(=O)[C@@H]1C=C2c3cccc4[nH]cc(c34)C[C@H]2N(CCc2ccccc2OC)C1 [Compound 11, (6aR,9R)-N,N-diethyl-7-(2-methoxyphenethyl)-4,6,6a,7,8,9-hexahydroindolo[4,3-fg]quinoline-9-carboxamide] | 98.49 | 2.37 | 63.46 | 0.917 | 90.9 | – | – | – | – | 107.89 | 14.18 | very low efficacy agonists | – | –
3 | CCCN1C[C@H](C(=O)N(CC)CC)C=C2c3cccc4[nH]cc(c34)C[C@H]21 [Compound 1, (6aR,9R)-N,N-diethyl-7-propyl-4,6,6a,7,8,9-hexahydroindolo[4,3-fg]quinoline-9-carboxamide] | 94.51 | 15.1 | 96.96 | 2.3 | 108.68 | – | 161.6 | – | 68.2 | 106.79 | 58.3 | – | reduced immobility time | –
4 | CCN(CC)C(=O)[C@@H]1C=C2c3cccc4[nH]cc(c34)C[C@H]2N(Cc2ccccc2OC)C1 [Compound 10, (6aR,9R)-N,N-diethyl-7-(2-methoxybenzyl)-4,6,6a,7,8,9-hexahydroindolo[4,3-fg]quinoline-9-carboxamide] | 86.87 | 7.3 | 49.44 | 1 | 114.19 | – | – | – | – | 13.417 | 36.52 | very low efficacy agonists | – | –
5 | CCN(CC)C(=O)[C@@H]1C=C2c3cccc4[nH]cc(c34)C[C@H]2N(CCCF)C1 [Compound 2, (6aR,9R)-N,N-diethyl-7-(3-fluoropropyl)-4,6,6a,7,8,9-hexahydroindolo[4,3-fg]quinoline-9-carboxamide] | 91.2 | 19.1 | 97.75 | 2.67 | 113.6 | – | 76.44 | as efficacious as the positive control desipramine | 41.33 | 105.48 | 64.96 | – | – | –
6 | CCCN1C[C@H](C(=O)N[C@H](C)CC)C=C2c3cccc4[nH]cc(c34)C[C@H]21 [Compound 3, (6aR,9R)-N-((R)-sec-butyl)-7-propyl-4,6,6a,7,8,9-hexahydroindolo[4,3-fg]quinoline-9-carboxamide] | 116.9 | 4.2 | 102.64 | 1.6 | 121.3 | – | 137.5 | – | 50.4 | 119.49 | 96.82 | – | – | exceptional selectivity
7 | CCCN1C[C@H](C(=O)NC(CC)CC)C=C2c3cccc4[nH]cc(c34)C[C@H]21 [Compound 6, (6aR,9R)-N-(pentan-3-yl)-7-propyl-4,6,6a,7,8,9-hexahydroindolo[4,3-fg]quinoline-9-carboxamide] | 91.67 | 1.61 | 94.64 | 0.6 | 93.13 | – | 93.6 | – | 76.6 | 116.77 | – | – | – | –
